Source: ChEMBL document CHEMBL1153260, “The synthesis of aminobenzazepinones as anti-phenylalanine dipeptide mimics and their use in nep inhibition” (Bioorg Med Chem Lett, 1996)

Target: T1, Neprilysin (Rattus norvegicus, UniProt P07861)
T1 sequence (P07861 whole entry): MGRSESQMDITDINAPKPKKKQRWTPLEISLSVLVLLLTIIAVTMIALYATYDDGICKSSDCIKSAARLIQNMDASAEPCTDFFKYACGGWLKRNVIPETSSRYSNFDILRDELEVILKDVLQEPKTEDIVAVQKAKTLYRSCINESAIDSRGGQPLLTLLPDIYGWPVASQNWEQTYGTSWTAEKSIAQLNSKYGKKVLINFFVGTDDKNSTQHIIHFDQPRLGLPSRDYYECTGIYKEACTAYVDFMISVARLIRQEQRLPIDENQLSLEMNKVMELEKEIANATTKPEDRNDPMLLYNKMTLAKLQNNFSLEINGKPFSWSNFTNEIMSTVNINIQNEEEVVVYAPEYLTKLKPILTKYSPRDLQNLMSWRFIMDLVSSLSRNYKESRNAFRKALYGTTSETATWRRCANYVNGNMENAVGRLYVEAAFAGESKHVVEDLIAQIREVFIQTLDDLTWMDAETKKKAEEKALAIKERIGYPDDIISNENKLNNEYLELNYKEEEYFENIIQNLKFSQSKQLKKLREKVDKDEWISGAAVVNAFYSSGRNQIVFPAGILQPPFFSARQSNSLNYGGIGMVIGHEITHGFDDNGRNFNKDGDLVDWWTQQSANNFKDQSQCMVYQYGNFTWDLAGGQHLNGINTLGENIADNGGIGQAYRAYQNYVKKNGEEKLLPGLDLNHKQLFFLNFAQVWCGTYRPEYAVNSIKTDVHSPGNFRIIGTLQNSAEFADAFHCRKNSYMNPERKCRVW
Test: Compound was tested for inhibition of neutral endopeptidase (NEP).

| Ki | Compound |
| --- | --- |
| 0.07 nM | O=C(O)C1CCCC2c3ccccc3C[C@H](NC(=O)[C@H](S)Cc3ccccc3)C(=O)N12 (stereo partly drawn) |
| 0.4 nM | CC(C)C[C@@H](C(=O)O)N1Cc2ccccc2C[C@H](NC(=O)[C@H](S)Cc2ccccc2)C1=O |
| 330 nM | CC(C)CC(C(=O)O)N1CCO[C@@H](c2ccccc2)[C@H](NC(=O)[C@H](S)Cc2ccccc2)C1=O (single isomer, unassigned) |
